# According to patent US20250051300A1, “GRAM-NEGATIVE SPECIFIC ANTIBIOTICS SPARING EFFECT ON GUT MICROBIOME” (THE BOARD OF TRUSTEES OF THE UNIVERSITY OF ILLINOIS, priority 2021, published 2025):
# Read-outs that look alike come from different tables or passages of the source.
# Tests used:
# Klebsiella pneumoniae = assay: MIC, micro-dilution broth method (CLSI); format: cell-based
# Enterobacter cloacae = assay: MIC, micro-dilution broth method (CLSI); format: cell-based
smiles,measurement,setting,value
"Fc1ccc(COc2cccc(-c3n[nH]cc3-c3ccncc3)c2)cc1 [Compound 2, 4-(3-(3-((4-fluorobenzyl)oxy)phenyl)-1H-pyrazol-4-yl)pyridine]",MIC,Klebsiella pneumoniae; K. pneumoniae AR-0040,>32 µg/mL
same,MIC,Klebsiella pneumoniae; K. pneumoniae ATCC BAA-1705,>32 µg/mL
same,MIC,"Klebsiella pneumoniae; Klebsiella pneumoniae, ATCC27736, K. pneumoniae ATCC 27736, read-out: MIC",> 32 µg/mL
same,MIC,"Klebsiella pneumoniae; Klebsiella pneumoniae, ATCCBAA1705, K. pneumoniae ATCC BAA-1705, read-out: MIC",> 32 µg/mL
same,MIC,"Klebsiella pneumoniae; Klebsiella pneumoniae, ATCCBAA2146, K. pneumoniae ATCC BAA-2146, read-out: MIC",> 32 µg/mL
same,MIC,"Klebsiella pneumoniae; Klebsiella pneumoniae, ATCCBAA2342, K. pneumoniae ATCC BAA-2342, read-out: MIC",> 32 µg/mL
same,MIC,"Klebsiella pneumoniae; Klebsiella pneumoniae, ATCCBAA2470, K. pneumoniae ATCC BAA-2470, read-out: MIC",> 32 µg/mL
same,MIC,"Klebsiella pneumoniae; Klebsiella pneumoniae, ATCCBAA2472, K. pneumoniae ATCC BAA-2472, read-out: MIC",> 32 µg/mL
same,MIC,"Klebsiella pneumoniae; Klebsiella pneumoniae, ATCCBAA2473, K. pneumoniae ATCC BAA-2473, read-out: MIC",> 32 µg/mL
same,MIC,"Klebsiella pneumoniae; Klebsiella pneumoniae, K. pneumoniae AR0034, read-out: MIC",> 32 µg/mL
same,MIC,"Klebsiella pneumoniae; Klebsiella pneumoniae, K. pneumoniae AR0039, read-out: MIC",> 32 µg/mL
same,MIC,"Klebsiella pneumoniae; Klebsiella pneumoniae, K. pneumoniae AR0041, read-out: MIC",> 32 µg/mL
same,MIC,"Klebsiella pneumoniae; Klebsiella pneumoniae, K. pneumoniae AR0042, read-out: MIC",> 32 µg/mL
same,MIC,"Klebsiella pneumoniae; Klebsiella pneumoniae, K. pneumoniae AR0043, read-out: MIC",> 32 µg/mL
same,MIC,"Klebsiella pneumoniae; Klebsiella pneumoniae, K. pneumoniae AR0044, read-out: MIC",> 32 µg/mL
same,MIC,"Klebsiella pneumoniae; Klebsiella pneumoniae, K. pneumoniae AR0046, read-out: MIC",> 32 µg/mL
same,MIC,"Klebsiella pneumoniae; Klebsiella pneumoniae, K. pneumoniae AR0047, read-out: MIC",> 32 µg/mL
same,MIC,"Klebsiella pneumoniae; Klebsiella pneumoniae, K. pneumoniae AR0049, read-out: MIC",> 32 µg/mL
same,MIC,"Klebsiella pneumoniae; Klebsiella pneumoniae, K. pneumoniae AR0066, read-out: MIC",> 32 µg/mL
same,MIC,"Klebsiella pneumoniae; Klebsiella pneumoniae, K. pneumoniae AR0068, read-out: MIC",> 32 µg/mL
same,MIC,"Klebsiella pneumoniae; Klebsiella pneumoniae, K. pneumoniae AR0075, read-out: MIC",> 32 µg/mL
same,MIC,"Klebsiella pneumoniae; Klebsiella pneumoniae, K. pneumoniae AR0076, read-out: MIC",> 32 µg/mL
same,MIC,"Klebsiella pneumoniae; Klebsiella pneumoniae, K. pneumoniae AR0079, read-out: MIC",> 32 µg/mL
same,MIC,"Klebsiella pneumoniae; Klebsiella pneumoniae, K. pneumoniae AR0080, read-out: MIC",> 32 µg/mL
same,MIC,"Klebsiella pneumoniae; Klebsiella pneumoniae, K. pneumoniae AR0087, read-out: MIC",> 32 µg/mL
same,MIC,"Klebsiella pneumoniae; Klebsiella pneumoniae, K. pneumoniae AR0098, read-out: MIC",> 32 µg/mL
same,MIC,"Klebsiella pneumoniae; Klebsiella pneumoniae, K. pneumoniae AR0106, read-out: MIC",> 32 µg/mL
same,MIC,"Klebsiella pneumoniae; Klebsiella pneumoniae, K. pneumoniae AR0107, read-out: MIC",> 32 µg/mL
same,MIC,"Klebsiella pneumoniae; Klebsiella pneumoniae, K. pneumoniae AR0109, read-out: MIC",> 32 µg/mL
same,MIC,"Klebsiella pneumoniae; Klebsiella pneumoniae, K. pneumoniae AR0112, read-out: MIC",> 32 µg/mL
same,MIC,"Klebsiella pneumoniae; Klebsiella pneumoniae, K. pneumoniae AR0113, read-out: MIC",> 32 µg/mL
same,MIC,"Klebsiella pneumoniae; Klebsiella pneumoniae, K. pneumoniae AR0115, read-out: MIC",> 32 µg/mL
same,MIC,"Klebsiella pneumoniae; Klebsiella pneumoniae, K. pneumoniae AR0117, read-out: MIC",> 32 µg/mL
same,MIC,"Klebsiella pneumoniae; Klebsiella pneumoniae, K. pneumoniae AR0120, read-out: MIC",> 32 µg/mL
same,MIC,"Klebsiella pneumoniae; Klebsiella pneumoniae, K. pneumoniae AR0125, read-out: MIC",> 32 µg/mL
same,MIC,"Klebsiella pneumoniae; Klebsiella pneumoniae, K. pneumoniae AR0126, read-out: MIC",> 32 µg/mL
same,MIC,"Klebsiella pneumoniae; Klebsiella pneumoniae, K. pneumoniae AR0129, read-out: MIC",> 32 µg/mL
same,MIC,"Klebsiella pneumoniae; Klebsiella pneumoniae, K. pneumoniae AR0135, read-out: MIC",> 32 µg/mL
same,MIC,"Klebsiella pneumoniae; Klebsiella pneumoniae, K. pneumoniae AR0138, read-out: MIC",> 32 µg/mL
same,MIC,"Klebsiella pneumoniae; Klebsiella pneumoniae, K. pneumoniae AR0139, read-out: MIC",> 32 µg/mL
same,MIC,"Klebsiella pneumoniae; Klebsiella pneumoniae, K. pneumoniae AR0140, read-out: MIC",> 32 µg/mL
same,MIC,"Klebsiella pneumoniae; Klebsiella pneumoniae, K. pneumoniae AR0141, read-out: MIC",> 32 µg/mL
same,MIC,"Klebsiella pneumoniae; Klebsiella pneumoniae, K. pneumoniae AR0142, read-out: MIC",> 32 µg/mL
same,MIC,"Klebsiella pneumoniae; Klebsiella pneumoniae, K. pneumoniae AR0143, read-out: MIC",> 32 µg/mL
same,MIC,"Klebsiella pneumoniae; Klebsiella pneumoniae, K. pneumoniae AR0145, read-out: MIC",> 32 µg/mL
same,MIC,"Klebsiella pneumoniae; Klebsiella pneumoniae, K. pneumoniae AR0146, read-out: MIC",> 32 µg/mL
same,MIC,"Klebsiella pneumoniae; Klebsiella pneumoniae, K. pneumoniae AR0148, read-out: MIC",> 32 µg/mL
same,MIC,"Klebsiella pneumoniae; Klebsiella pneumoniae, K. pneumoniae AR0152, read-out: MIC",> 32 µg/mL
same,MIC,"Klebsiella pneumoniae; Klebsiella pneumoniae, K. pneumoniae AR0153, read-out: MIC",> 32 µg/mL
same,MIC,"Klebsiella pneumoniae; Klebsiella pneumoniae, K. pneumoniae AR0158, read-out: MIC",> 32 µg/mL
same,MIC,"Klebsiella pneumoniae; Klebsiella pneumoniae, K. pneumoniae AR0160, read-out: MIC",> 32 µg/mL
same,MIC,"Klebsiella pneumoniae; Klebsiella pneumoniae, K. pneumoniae AR0347, read-out: MIC",> 32 µg/mL
same,MIC,"Klebsiella pneumoniae; Klebsiella pneumoniae, K. pneumoniae AR0542, read-out: MIC",> 32 µg/mL
same,MIC,"Klebsiella pneumoniae; Klebsiella pneumoniae, K. pneumoniae AR0548, read-out: MIC",> 32 µg/mL
same,MIC,"Klebsiella pneumoniae; Klebsiella pneumoniae, K. pneumoniae AR0550, read-out: MIC",> 32 µg/mL
same,MIC,"Klebsiella pneumoniae; Klebsiella pneumoniae, K. pneumoniae AR0552, read-out: MIC",> 32 µg/mL
same,MIC,"Klebsiella pneumoniae; Klebsiella pneumoniae, K. pneumoniae AR0553, read-out: MIC",> 32 µg/mL
same,MIC,"Klebsiella pneumoniae; Klebsiella pneumoniae, K. pneumoniae AR0554, read-out: MIC",> 32 µg/mL
same,MIC,"Klebsiella pneumoniae; Klebsiella pneumoniae, K. pneumoniae AR0555, read-out: MIC",> 32 µg/mL
same,MIC,"Klebsiella pneumoniae; Klebsiella pneumoniae, K. pneumoniae AR-0040, read-out: MIC",> 32 µg/mL
same,MIC,Enterobacter cloacae; E. cloacae AR-0163,>32 µg/mL
same,MIC,Enterobacter cloacae; E. cloacae ATCC BAA-2468,>32 µg/mL
same,MIC,"Enterobacter cloacae; Enterobacter cloacae, ATCC29893, E. cloacae ATCC 29893, read-out: MIC",> 32 µg/mL
same,MIC,"Enterobacter cloacae; Enterobacter cloacae, ATCCBAA2341, E. cloacae ATCC BAA-2341, read-out: MIC",> 32 µg/mL
same,MIC,"Enterobacter cloacae; Enterobacter cloacae, ATCCBAA2468, E. cloacae ATCC BAA-2468, read-out: MIC",> 32 µg/mL
same,MIC,"Enterobacter cloacae; Enterobacter cloacae, E. cloacae AR0032, read-out: MIC",> 32 µg/mL
same,MIC,"Enterobacter cloacae; Enterobacter cloacae, E. cloacae AR0038, read-out: MIC",> 32 µg/mL
same,MIC,"Enterobacter cloacae; Enterobacter cloacae, E. cloacae AR0050, read-out: MIC",8 µg/mL
